Source: patent US20020090341A1, “Method” (NYCOMED IMAGING AS, priority 1997, published 2002)

System: normal and reperfused infarcted myocardium
Test: inversion recovery echo planar imaging T1 measurement after coronary occlusion 60 min and reperfusion 120 min
Experimental: Sprague-Dawley rats (female, 270-320 g, n=24) were subjected to occlusion of the anterior branch of the left main coronary artery for 60 minutes, followed by reperfusion for 120 minutes before injecting the test agent. A catheter was placed in the tail vein for administration of contrast media. Animals were connected to an ECG patient monitor and placed in the magnet such that the heart of each rat was at or near ioscenter. Magnetic field was optimized for a central slab of 6 mm thickness, within which the 2 mm section to be imaged was located. Inversion and slice select pulses were calibrated. Inversion recovery echo planar imaging was then used to measure baseline T1 values for myocardium and left ventricle chamber blood.
MnDPDP was then administered at doses of 25, 50 and 100 μmole/kg by intravenous injection of 2.5, 5 and 10 ml/kg, respectively, of the test solution which contained a 10 mM solution of MnDPDP. These injections were followed by a flush of physiologic saline solution (0.9%) such that the combined volumes of test agent and saline flush was 11 ml/kg. All injected solutions were warmed before being administered and were injected slowly over 1.5 mins. T1 values were remeasured at 5 minute intervals during the first 60 minutes after injection. Occasional animals were imaged at 90 minutes for T1 determination (EPI) and for visual inspection of contrast on STIR (short TI inversion recovery) prepared spin echo images.
After imaging was completed, animals were sacrificed by an overdose of pentobarbital and the heart was excised, sectioned and stained in triphenyltetrazolium chloride solution to define the infarcted region.

[1] = 50 μmol/kg, 50 min after injection
[2] = 50 μmol/kg, 55 min after injection
[3] = 50 μmol/kg, 60 min after injection
[4] = 100 μmol/kg, 5 min after injection
[5] = 100 μmol/kg, 10 min after injection
[6] = 100 μmol/kg, 15 min after injection
[7] = 100 μmol/kg, 20 min after injection
[8] = 100 μmol/kg, 25 min after injection
[9] = 100 μmol/kg, 30 min after injection
[10] = 100 μmol/kg, 35 min after injection
[11] = 100 μmol/kg, 40 min after injection
[12] = 100 μmol/kg, 45 min after injection
[13] = 100 μmol/kg, 50 min after injection
[14] = 100 μmol/kg, 55 min after injection
[15] = 100 μmol/kg, 60 min after injection

## Cc1ncc(COP(=O)(O)O)c(CN(CCN(CC(=O)[O-])Cc2c(COP(=O)(O)O)cnc(C)c2O)CC(=O)[O-])c1O.[Mn+2] [MnDPDP, manganese (II) chelate of N,N′-bis-(pyridoxal-5-phosphate)-ethylenediamine-N,N′-diacetic acid]
[1]
  T1 Infarct: 0.88 ± 0.02 s
  T1 normal: 0.59 ± 0.01 s
[2]
  T1 Blood: 1.08 ± 0.03 s
  T1 Infarct: 0.89 ± 0.03 s
  T1 normal: 0.58 ± 0.01 s
[3]
  T1 Blood: 1.10 ± 0.03 s
  T1 Infarct: 0.91 ± 0.03 s
  T1 normal: 0.58 ± 0.01 s
[4]
  T1 Blood: 0.63 ± 0.03 s
  T1 Infarct: 0.46 ± 0.02 s
  T1 normal: 0.59 ± 0.01 s
[5]
  T1 Blood: 0.74 ± 0.03 s
  T1 Infarct: 0.47 ± 0.02 s
  T1 normal: 0.59 ± 0.01 s
[6]
  T1 Blood: 0.80 ± 0.02 s
  T1 Infarct: 0.51 ± 0.02 s
  T1 normal: 0.58 ± 0.01 s
[7]
  T1 Blood: 0.83 ± 0.02 s
  T1 Infarct: 0.55 ± 0.03 s
  T1 normal: 0.57 ± 0.01 s
[8]
  T1 Blood: 0.87 ± 0.02 s
  T1 Infarct: 0.58 ± 0.03 s
  T1 normal: 0.57 ± 0.01 s
[9]
  T1 Blood: 0.89 ± 0.02 s
  T1 Infarct: 0.60 ± 0.03 s
  T1 normal: 0.55 ± 0.01 s
[10]
  T1 Blood: 0.91 ± 0.03 s
  T1 Infarct: 0.61 ± 0.03 s
  T1 normal: 0.54 ± 0.01 s
[11]
  T1 Blood: 0.92 ± 0.03 s
  T1 Infarct: 0.63 ± 0.03 s
  T1 normal: 0.54 ± 0.01 s
[12]
  T1 Blood: 0.93 ± 0.03 s
  T1 Infarct: 0.65 ± 0.03 s
  T1 normal: 0.53 ± 0.01 s
[13]
  T1 Blood: 0.94 ± 0.03 s
  T1 Infarct: 0.66 ± 0.03 s
  T1 normal: 0.53 ± 0.01 s
[14]
  T1 Blood: 0.97 ± 0.02 s
  T1 Infarct: 0.69 ± 0.03 s
  T1 normal: 0.52 ± 0.01 s
[15]
  T1 Blood: 0.97 ± 0.03 s
  T1 Infarct: 0.69 ± 0.03 s
  T1 normal: 0.52 ± 0.01 s
Blood pool clearance
  slow E2 component: ~0.01 per min
Dose 25, ROI blood
  E1, bi-exponential fit of ΔR1 clearance: 0.21 min⁻¹
  E2, bi-exponential fit of ΔR1 clearance: 0.011 ± 0.001 min⁻¹
Dose 25, ROI infarct
  E1, bi-exponential fit of ΔR1 clearance: 0.15 min⁻¹
  E2, bi-exponential fit of ΔR1 clearance: 0.015 ± 0.001 min⁻¹
Dose 25, ROI normal
  intercept, linear fit - increase in normal myocardium: 0.187
  slope, linear fit - increase in normal myocardium: 0.0043 min⁻¹
Dose 50, ROI blood
  E1, bi-exponential fit of ΔR1 clearance: 0.15 min⁻¹
  E2, bi-exponential fit of ΔR1 clearance: 0.009 ± 0.001 min⁻¹
Dose 50, ROI infarct
  E1, bi-exponential fit of ΔR1 clearance: 0.058 min⁻¹
  E2, bi-exponential fit of ΔR1 clearance: 0.005 ± 0.003 min⁻¹
Dose 50, ROI normal
  intercept, linear fit - increase in normal myocardium: 0.294
  slope, linear fit - increase in normal myocardium: 0.0056 min⁻¹
Dose 100, ROI blood
  E1, bi-exponential fit of ΔR1 clearance: 0.18 min⁻¹
  E2, bi-exponential fit of ΔR1 clearance: 0.011 ± 0.001 min⁻¹
Dose 100, ROI infarct
  E1, bi-exponential fit of ΔR1 clearance: 0.11 min⁻¹
  E2, bi-exponential fit of ΔR1 clearance: 0.010 ± 0.003 min⁻¹
Dose 100, ROI normal
  intercept, linear fit - increase in normal myocardium: 0.523
  slope, linear fit - increase in normal myocardium: 0.0050 min⁻¹
Equivalent to E2 component
  plasma half life: ~70 min
Over 60 minutes after injection, 25, 50 and 100 μmole/kg
  clearance or accumulation of test agent: cleared from both blood and infarcted myocardium but accumulated in uninfarcted myocardium
